The values that follow come from patent US8304190B2, “Pharmacogenomics of blood pressure lowering agents” (Royal College of Surgeons in Ireland, priority 2005, dated 2012).

Entries after “also recorded” stand apart in the source; their conditions may differ. Read-outs that look alike come from different tables or passages of the source.

A short description of one series: clinical. The following applies: human, plasma, Plasma aliskiren on treatment (trough), after four weeks, median (interquartile range).
Another series has as its system plasma renin. The settings on record: aliskiren 160-640 mg; unstimulated plasma renin 10-20 pg/ml; cited from earlier work.
For series [1] the following is noted: for Plasma aliskiren on treatment (trough): Aliskiren 300 mg, after four weeks, median (interquartile range).
For series [2], the system named is plasma renin activity. The series can be described thus: Trough plasma renin activity (PRA) after four weeks of treatment. The following applies: for Effect of therapy on PRA: trough PRA after four weeks of treatment; for PRA Percentage Change / PRA on treatment (trough): Losartan 100 mg, after four weeks, median (interquartile range).
Series [3] deals with T1, plasma renin activity (Homo sapiens, UniProt P00797).
T1 sequence (P00797 67-406): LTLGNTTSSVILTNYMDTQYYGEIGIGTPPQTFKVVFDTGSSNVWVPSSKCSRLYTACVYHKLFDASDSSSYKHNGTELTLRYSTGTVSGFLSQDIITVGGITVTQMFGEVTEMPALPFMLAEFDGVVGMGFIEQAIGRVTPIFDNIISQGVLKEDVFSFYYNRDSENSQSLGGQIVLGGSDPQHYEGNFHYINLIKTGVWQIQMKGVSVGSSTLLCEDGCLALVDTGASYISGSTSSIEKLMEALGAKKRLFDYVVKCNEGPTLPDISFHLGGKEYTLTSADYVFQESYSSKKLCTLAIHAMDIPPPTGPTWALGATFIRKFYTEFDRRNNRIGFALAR
The series is described as above. The following applies: after four weeks, median (interquartile range).

Another series has as its system hypertensive patients. The series can be described thus: Clinic blood pressure, change from baseline with study treatment, by renin −5312 C/T genotype. Format: in vivo, human. The settings on record: for BP lowering by −5312 C/T genotype: clinic and ambulatory BP, T allele carriers versus CC homozygotes. From the text: Tables 2 and 3 show baseline clinic and ambulatory blood pressures, and the changes from baseline with study treatment.

Where [4] appears, read: Ren CC homozygotes, Aliskiren 37.5 mg.
Where [5] appears, read: Ren CC homozygotes, Aliskiren 75 mg.
The mark [6] stands for this setting: Ren CC homozygotes, Aliskiren 150 mg.
The mark [7] stands for this setting: Ren CC homozygotes, Aliskiren 300 mg.
The mark [8] stands for this setting: Ren T allele carriers, Aliskiren 37.5 mg.
Where [9] appears, read: Ren T allele carriers, Aliskiren 75 mg.
The mark [10] stands for this setting: Ren T allele carriers, Aliskiren 150 mg.
The mark [11] stands for this setting: Ren T allele carriers, Aliskiren 300 mg.

Turning to `COCCCOc1cc(C[C@@H](C[C@H](N)[C@@H](O)C[C@H](C(=O)NCC(C)(C)C(N)=O)C(C)C)C(C)C)ccc1OC` [Aliskiren], the concentration at 4 weeks in the series “clinical” (37.5 mg, Ren CC homozygotes, Aliskiren 37.5 mg) was determined as 3.1 ng/mL; in the series “clinical” (37.5 mg, Ren T allele carriers, Aliskiren 37.5 mg) it was 2.4 ng/mL; in the series “clinical” (75 mg, Ren CC homozygotes, Aliskiren 75 mg) it was 4.4 ng/mL; in “clinical” (75 mg, Ren T allele carriers, Aliskiren 75 mg), 3.9 ng/mL; in the series “clinical” (150 mg, Ren CC homozygotes, Aliskiren 150 mg), 11 ng/mL; in “clinical” (150 mg, Ren T allele carriers, Aliskiren 150 mg), 7.1 ng/mL. In addition, the concentration at 4 weeks was 31.9 ng/mL in “clinical” (300 mg, Ren CC homozygotes, Aliskiren 300 mg) and 20.5 ng/mL in the series “clinical” (300 mg, Ren T allele carriers, Aliskiren 300 mg). For the same compound, the “Plasma renin levels in the presence of aliskiren” value with plasma renin is 300 to 600 pg/mL. In addition, the “Plasma aliskiren on treatment (trough)” value in series [1] (Ren CC homozygotes) is on record as 31.5 (70.3, 13.5) ng/ml; in series [1] (Ren T allele carriers), 20.5 (41.0, 17.0) ng/ml. For the same compound, in series [1] (T allele carriers versus CC homozygotes, trough, after 4 weeks of treatment), the “Reduction of on treatment plasma aliskiren levels amongst T allele carriers” value was 20%-30%. The “Effect of therapy on PRA” value in the series with plasma renin activity [2] is given as “suppressed PRA”. The “PRA Percentage Change” value is recorded as −50.0 (−4.5, −62.7) % at plasma renin activity [3] (setting [4]); −61.7 (−32.7, −82.1) % on plasma renin activity [3] (setting [5]); −77.8 (−70.6, −84.8) % at plasma renin activity [3] (setting [6]); −82.5 (−69.9, −86.7) % at plasma renin activity [3] (setting [7]); −63.8 (−11.2, −77.9) % at plasma renin activity [3] (setting [8]); −54.3 (−44.4, −81.5) % at plasma renin activity [3] (setting [9]). For the same compound, the “PRA Percentage Change” value on plasma renin activity [3] (setting [10]) is −75.7 (−67.4, −82.1) %; on plasma renin activity [3] (setting [11]), −82.5 (−69.9, −86.7) %. The “PRA on treatment (trough)” value was 0.32 (0.12, 0.77) ng/ml/h on plasma renin activity [3] (setting [4]); 0.16 (0.09, 0.46) ng/ml/h on plasma renin activity [3] (setting [5]); 0.10 (0.06, 0.31) ng/ml/h on plasma renin activity [3] (setting [6]); 0.17 (0.06, 0.42) ng/ml/h at plasma renin activity [3] (setting [7]); 0.17 (0.06, 0.89) ng/ml/h on plasma renin activity [3] (setting [8]); 0.42 (0.20, 0.59) ng/ml/h on plasma renin activity [3] (setting [9]). In addition, the “PRA on treatment (trough)” value at plasma renin activity [3] (setting [10]) is recorded as 0.17 (0.12, 0.47) ng/ml/h; at plasma renin activity [3] (setting [11]), 0.18 (0.06, 0.51) ng/ml/h. The “Relationship between dose and BP lowering” value in the series on hypertensive patients (Aliskiren 37.5 to 300 mg daily) is “clear dose response relationship”. Further, the “BP lowering by −5312 C/T genotype” value with hypertensive patients is reported as “BP lowering was greatest amongst CC homozygotes; also recorded: amongst CC homozygotes of the −5312 C/T variant”.
For `CCCCc1nc(Cl)c(CO)n1Cc1ccc(-c2ccccc2-c2nn[nH]n2)cc1` [Losartan], in the series on plasma renin activity [2] (Ren CC homozygotes), the “PRA Percentage Change” value is 110.32 (15.4, 262.5) % and the “PRA on treatment (trough)” value is on record as 1.65 (0.60, 3.20) ng/ml/h. In the series with plasma renin activity [2] (Ren T allele carriers), the “PRA Percentage Change” value was 97.6 (22.2, 363.8) % and the “PRA on treatment (trough)” value is reported as 1.80 (0.65, 3.30) ng/ml/h. Also, the “Effect of therapy on PRA” value in the series with plasma renin activity [2] is given as “increased PRA levels”. In the series on hypertensive patients, the “BP lowering by −5312 C/T genotype” value is “greatest with Losartan 100 mg daily amongst T allele carriers; also recorded: amongst T allele carriers of the −5312 C/T variant”.
